A short description of this data set: Rat pharmacokinetic experiment. Format: in vivo. The following applies: po, male SD rats, gavage (p.o.), 10 mg/kg, plasma. The source says:
TEST EXAMPLE 3 PHARMACOKINETIC EXPERIMENT OF COMPOUNDS
Pharmacokinetic test of compounds T-32/T-105/T-253/T-272/T-273/T-277 of the present invention.
Experimental Protocol of Rat Pharmacokinetics
• (1) Required animals: healthy adult SD rats, male, 3 rats, 6-8 weeks old; weighing 200-300 g. • (2) Required equipments: analytical balance, animal weight scale, magnetic stirrer, refrigerated centrifuge, single-channel manual pipettor, etc. • (3) Required reagents: EDTA-Na2 anticoagulant, etc. 11.2 g of EDTA-Na2 was weighed and placed in a reagent flask, 100 mL of normal saline was added, and the flask was shook to completely dissolve it. After the preparation was completed, it was divided into 1.5 mL centrifuge tubes with 20 uL each for whole blood sample collection. • (3) About 10 mg of the sample to be tested was accurately weighed, 5% DMSO after conversion was added to dissolve, then 30% PEG400 and 65% (10% Hp-β-CD in PBS) were added for sonication, and vortex-mixed evenly to obtain a solution with a concentration of 1 mg/mL which is freshly prepared before use. • (4) 0.1 mL of sample was taken into a 1.5 mL centrifuge tube and stored at −80° C. for concentration analysis of drug administration solution. • (5) Animals were kept in rat cages, and fasted (not less than 10 h) from the day before the test(but water was allowed). The animals were separately weighed and marked at the tail on the day of the test. Blank blood was collected before administration. The blood was collected from tail vein. • (6) Route of administration: gavage (p.o.); dosage: 10 mg/kg; administration volume: 10 mL/kg. • (7) Operation process: Use the left hand with anti-bite gloves to catch the rat, make it stand upright, stretch the 16th gastric lavage needle from the throat of the mouth, insert the needle when feeling out no obvious resistance, and then inject the drug into the stomach. • (8) 0.2 ml of whole blood was collected from the tested animals and added into EDTA-Na2 anticoagulant tubes before administration and 0.5 h, 1 h, 2 h, 4 h, 6 h, 8 h, 12 h and 24 h after administration respectively. The tubes were reversed up and down for 3-4 times and mixed evenly, centrifuged at 4° C. at 10000 g for 5 min to separate plasma, and stored at −80° C. for testing. The blood was collected from tail vein. • (9) LC-MS/MS method was established to determine the concentration of original drug in plasma, the blood drug concentration-time curve was drawn, and the main pharmacokinetic parameters were calculated by non-compartment model. • (10) Pharmacokinetic parameters of T-32/T-105/T-253/T-272/T-273/T-277 were shown below in Table 2.

Molecules are shown by their SMILES.

As a reminder, the AUC(0-t) is the area under the concentration-time curve up to a stated or last time point. A high value points to more exposure. As a reminder, the Cmax is the highest concentration seen after dosing. One may read the MRT last as a mean duration of stay, worked out from the concentration-time curve. One may read the Tmax as the time at which the peak concentration occurs.

With `CC(C)NC(=O)c1ccc2c(-c3ccc(C(F)(F)F)cc3)cccc2c1` [Control compound 1, reference compound], the AUC(0-t) came to 2180 ng·h/mL, the Cmax came out at 584 ng/mL, the MRT last came to 2.92 h and the Tmax is 2 h.
